Data set [1] deals with G. duodenalis BRIS/91/HEPU/1279. As to the kind of experiment: Primary Giardia screen at 10 µM (live-cell imaging, automated counting). Type of data set: cell-based, Giardia duodenalis. Conditions: for inhibition at 10 µM: Giardia duodenalis. A digest of the protocol: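 Singlicate, 10 μM final, 0.2% DMSO; sealed chambers, 3% O2/5% CO2/N2. Counts by live-cell imaging at 24 h and 48 h. % growth vs vehicle, media background subtracted; Z' per plate.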

Data set [2] can be described thus: In vivo tolerability assessment. The protocol: In brief, separate groups of three mice were administered single, increasing doses of compound via oral gavage to examine tolerability. […] After a week of observation, mice in each group were euthanized and samples collected for pathology assessment. The highest dose assessed was 50 mg/kg. To further assess the safety of SN00797640, this highest dose was also administered to a final group of three mice, daily for three days.

Data set [3] deals with Neonatal foreskin fibroblast (NFF) cells. Description: Mammalian cell cytotoxicity assay (sulforhodamine B). The class given is cell-based, human. To be noted: Table S2; NFF vs 48 h Giardia IC50. Put shortly:
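Cytotoxicity against neonatal foreskin fibroblasts was read by sulforhodamine B staining, with media-only, untreated, DMSO-vehicle and chloroquine controls. Dose–response started at 100 µM. Selectivity index = NFF IC50 divided by G. duodenalis BRIS/91/HEPU/1279 IC50.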

Data set [4] relates to BRIS/91/HEPU/1279. As to the kind of experiment: Combination studies (isobolograms). To be noted: 24 h. Type of data set: cell-based, Giardia duodenalis. As to the method: The activity of each combination was assessed against BRIS/91/HEPU/1279. A total of 14, 8-point dose–response assays were performed with each combination in triplicate on at least two occasions in 96-well microtiter plates (1.5x10^4 BRIS/91/HEPU/1279 trophozoites per well). Plates were incubated in chambers gassed with 3% O2, 5% CO2 in N2 at 37 °C for 24 h before parasite growth was assessed by imaging. Media and vehicle controls were included on each plate. […] Isoboles were fitted using the standard hyperbolic function defined by the parameter I as previously described, where Positive values of I indicate synergy, negative values indicate antagonism and addition occurs when I equals 0. The significance of the difference of I from zero was assessed with Student’s t test.

The subject of data set [5] is Escherichia coli (ATCC 25922). Description: Anti-bacterial activity assay. Type of data set: cell-based. Put shortly:
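Compounds tested once at 50 µM in duplicate against mid-log cultures at 5 × 10^5 CFU/mL, incubated 18 h at 37 °C without shaking. Growth read by absorbance at 600 nm; percentage inhibition calculated relative to bacteria-only wells. Vancomycin (Gram-positive) and colistin (Gram-negative) served as plate controls.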

The subject of data set [6] is BRIS/87/HEPU/713. Description: Giardia dose response assay, assemblage A. Type of data set: cell-based. To be noted: Giardia duodenalis. The protocol:
(§1) In these assays, compounds were serially diluted (8–12-point doubling dilutions in technical duplicate) in DMSO control media, with all test wells inoculated with parasites (1.5 × 10^4 parasites for BRIS/91/HEPU/1279 and BRIS/91/HEPU/1279m1, or 3 × 10^3 parasites for BRIS/87/HEPU/713). Albendazole (positive control) plates were run with each experiment. All plates were sealed in culture chambers and gassed with 3% O2, 5% CO2 in N2 and incubated at 37 °C for 48 h, with parasites imaged and enumerated at 24 and 48 h. Growth inhibition was calculated as a percentage relative to vehicle controls minus any background as described above and IC50 values were determined using log-linear interpolation as previously described. […] Statistical comparison of IC50 values when required were performed using Student’s t-test.

The test system of data set [7] is G. duodenalis BRIS/91/HEPU/1279. Description: Giardia dose response assay, assemblage B. Type of data set: cell-based, Giardia duodenalis. Conditions: for IC50: Giardia duodenalis. Put shortly: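 Assemblage B trophozoites (BRIS/91/HEPU/1279, 1.5 × 10^4 parasites/well) faced 8–12-point doubling dilutions in duplicate, incubated 48 h at 37 °C under 3% O2, 5% CO2 in N2. Parasites were imaged and counted at 24 and 48 h. Growth inhibition was taken versus vehicle controls minus background, with IC50 by log-linear interpolation.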

The test system of data set [8] is BRIS/91/HEPU/1279m1. Description: Giardia dose response assay, metronidazole resistant line. Conditions: Giardia duodenalis. Type of data set: cell-based. The protocol:
as §1

SMILES strings stand for the structures. Read-outs that look alike come from different tables or passages of the source.

In the case of `Cc1ccc(C(=O)Nc2ccc3c(c2)N(C)C(=O)c2ccccc2O3)cc1` [SN00797640], the “Average % Inhibition 48h” value in data set [1] (48 h) is on record as more than 90%. The inhibition at 10 µM in data set [1] (24 h, first singlicate assay, read-out: % Inhibition n=1 24h) was found to be 97.5%; in data set [1] (24 h, re-assessment, read-out: % Inhibition n=2 24h), 83.1%; in data set [1] (24 h, read-out: Average % Inhibition 24h), 90.3%; in data set [1] (48 h, first singlicate assay, read-out: % Inhibition n=1 48h), 96.3%; in data set [1] (48 h, re-assessment, read-out: % Inhibition n=2 48h), 97.2%; in data set [1] (48 h, read-out: Average % Inhibition 48h), 96.8%. Moreover, the tolerability entry in data set [2] (oral gavage, up to 50 mg/kg daily for three consecutive days) was “well tolerated with no adverse reactions detected”. Besides, in data set [2] (test animals of tolerability study), the “histological analysis of liver and kidney samples” value is “no toxicity”. Also, in data set [3], the “SI (48h Gd)” value is given as more than 55. Besides, the “interaction parameter I” value in data set [4] (combined with albendazole, synergistic) is 4.7; in data set [4] (combined with metronidazole, additive), −0.3. Further, the “Bacterial Inhibition E. coli” value in data set [5] (50 µM) is recorded as less than 5%. In addition, the inhibition at 50 µM in data set [5] (Escherichia coli, ATCC25922, 50 µM, read-out: Bacterial Inhibition E. coli) stood at 3.64%. The IC50 amounted to 115 ± 30 nM in data set [6] (48 h, read-out: 48 h IC50); 164 ± 11 nM in data set [6] (read-out: 24 h IC50, 24 h); 380 ± 50 nM in data set [7] (24 h, read-out: G. duodenalis IC50 24h, Table S2, 24 h, ±SD, max 10 µM); 180 nM in data set [7] (48 h, BRIS/91/HEPU/1279, 48 h, mean ± SD, read-out: IC50 Giardia (48 h)); 181 nM in data set [7] (48 h, BRIS/91/HEPU/1279, 48 h, read-out: 48 h IC50); 160 ± 27 nM in data set [8] (24 h, read-out: 24 h IC50). Moreover, the IC50 in data set [8] (48 h, read-out: 48 h IC50) was 124 ± 3 nM. Moreover, in data set [7] (48 h IC50), the “fold more potent than metronidazole” value was more than 10 fold.

These data come from PMC9775191, “A Subset Screen of the Compounds Australia Scaffold Library Identifies 7-Acylaminodibenzoxazepinones as Potent and Selective Hits for Anti-Giardia Drug Discovery” (Biomedicines, 2022).
